This is an account of results in ChEMBL document CHEMBL3616462, “Synthesis and antiviral activity of maleopimaric and quinopimaric acids' derivatives” (Bioorg Med Chem, 2015).

A short description of data set [1]: Cytotoxicity against Influenza A virus (A/California/07/2009(H1N1)) infected MDCK cells. Particulars: dog. The data set is classed as cell-based, Canis lupus familiaris.
A short description of data set [2]: Antiviral activity against Influenza A virus (A/Viet Nam/1203/2004(H5N1)) infected in MDCK cells. The data set is classed as functional, cell-based.
A short description of data set [3]: Antiviral activity against Influenza A virus (A/California/07/2009(H1N1)) infected in MDCK cells. Format: functional, cell-based.
Data set [4] in a line: Antiviral activity against Influenza A virus (A/Brisbane/10/2007(H3N2)) infected in MDCK cells. Format: functional, cell-based.
A short description of data set [5]: Selectivity index, ratio of CC50 for Influenza A virus (A/California/07/2009(H1N1)) infected MDCK cells to EC50 for antiviral activity against Influenza A virus H1N1 (A/California/07/2009(H1N1)) infected in MDCK cells. Format: toxicity, cell-based. The following applies: dog; read-out: Ratio CC50/EC50.
A short description of data set [6]: Cytotoxicity against Influenza B virus (B/Florida/4/2006) infected MDCK cells. Particulars: dog. The data set is classed as cell-based, Canis lupus familiaris.
The nature of data set [7]: Cytotoxicity against Influenza A virus (A/Viet Nam/1203/2004(H5N1)) infected MDCK cells. Format: cell-based, Canis lupus familiaris. Particulars: dog.
Another data set concerns Influenza B virus. Kind of data set: Antiviral activity against Influenza B virus (B/Florida/4/2006) in MDCK cells. The data set is classed as functional, cell-based. The following applies: B/Florida/4/2006, MDCK.
A short description of data set [8]: Cytotoxicity against Influenza A virus (A/Brisbane/10/2007(H3N2)) infected MDCK cells. Format: cell-based, Canis lupus familiaris. Particulars: dog.

The structures appear in SMILES notation.

What is called CC50 is the concentration that lowers cell viability or growth by half. High values mean lower toxicity to the cells, low ones greater toxicity to the cells. What is called EC50 is the midpoint of the concentration-response curve. Read a high EC50 as weaker potency. With `COC(=O)[C@]1(C)CCC[C@]2(C)[C@H]3C[C@H]4C(C(C)C)=C[C@]3(CC[C@H]21)[C@H]1[C@@H]4[C@@H](OC(=O)c2cccnc2)CC[C@@H]1OC(=O)c1cccnc1`, the CC50 in [1] was 32 µM; in [6] it was 11 µM; in data set [7], 8.5 µM; in data set [8] it was 4.9 µM. Besides, the EC50 is more than 8.5 µM in [2], 29 µM in data set [3], more than 4.9 µM in data set [4] and more than 11 µM in the data set with Influenza B virus. The selectivity ratio in data set [5] came out at 1.1.

For `COC(=O)[C@]1(C)CCC[C@]2(C)[C@H]3C[C@H]4C(C(C)C)=C[C@]3(CC[C@H]21)[C@H]1[C@@H]4[C@@H](O)CC[C@@H]1O`, the CC50 in data set [1] is 93 µM; in data set [6] it was more than 100 µM; in [7] it was more than 100 µM; in data set [8], 64 µM. Further, the EC50 in data set [2] was more than 100 µM; in data set [3], 48 µM; in [4], more than 64 µM; in the data set on Influenza B virus, more than 100 µM. The selectivity ratio in [5] worked out at 1.9.

For `COC(=O)[C@]1(C)CCC[C@]2(C)[C@H]3C[C@H]4C(C(C)C)=C[C@]3(CC[C@H]21)[C@@H]1C(=O)CC[C@H](OC(C)=O)[C@@H]14`, the CC50 in data set [1], in data set [6], in [7] and in data set [8] was more than 100 µM each time. Besides, the EC50 (in data set [2]; in data set [3]; in data set [4]; in the data set with Influenza B virus) was more than 100 µM in each case.

As for `COC(=O)[C@]1(C)CCC[C@]2(C)[C@H]3C[C@@H]4[C@@H]5[C@H]6[C@H](OC(C)=O)CC[C@@H]5OC4(C(C)C)C[C@]63CC[C@H]21`, the CC50 in data set [1] was 3.5 µM; in data set [6] it was 10 µM; in [7], 12 µM; in data set [8] it was 5 µM. Besides, the EC50 in [2] is more than 12 µM; in [3], 3.2 µM; in data set [4] it was more than 5 µM; with Influenza B virus it was more than 10 µM. In addition, the selectivity ratio in data set [5] stood at 1.1.

Take `COC(=O)[C@]1(C)CCC[C@]2(C)[C@H]3C[C@@H]4[C@H]5[C@@H]6CCC(=O)[C@H]5[C@@]3(CC[C@H]21)CC4(C(C)C)O6`: the CC50 in data set [1], in data set [6], in data set [7] and in [8] was more than 100 µM in each case. Besides, the EC50 (in data set [2]; in data set [3]; in [4]; with Influenza B virus) was more than 100 µM in each case.

`COC(=O)[C@]1(C)CCC[C@]2(C)[C@H]3C[C@H]4C(C(C)C)=C[C@]3(CC[C@H]21)[C@H]1[C@@H]4[C@@H](OC(=O)/C=C/c2ccccc2)CC[C@@H]1OC(=O)C=Cc1ccccc1`: the CC50 turned out to be 17 µM in data set [1], 9.3 µM in data set [6], 8.2 µM in data set [7] and 4 µM in data set [8]. Besides, the 50% effective concentration (EC50) is more than 8.2 µM in [2], more than 17 µM in data set [3], more than 4 µM in data set [4] and more than 9.3 µM in the data set on Influenza B virus.

For `COC(=O)[C@H]1[C@@H](C(=O)OC)[C@@]23C=C(C(C)C)[C@@H]1C[C@@H]2[C@@]1(C)CCC[C@@](C)(C(=O)OC)[C@@H]1CC3`, the CC50 worked out at 9.4 µM in [1] and 7.6 µM in data set [8]. In addition, the EC50 in [3] is 3.8 µM; in [4] it was more than 7.6 µM. For the same compound, in [5], the selectivity ratio came out at 2.5.

Take `COC(=O)[C@]1(C)CCC[C@]2(C)[C@H]3C[C@H]4C(C(C)C)=C[C@]3(CC[C@H]21)[C@@H]1C(=O)CC[C@H](O)[C@@H]14`: the CC50 in data set [1], in [6], in [7] and in [8] was more than 100 µM throughout. Besides, the 50% effective concentration (EC50) (in data set [2]; in data set [3]; in [4]; in the data set with Influenza B virus) was more than 100 µM throughout.
